A short description of one data set: Solubility in water. It counts as physicochemical. From the text: (§1) It is desirable in the treatment of tumors and cancers to provide the active pharmaceutical ingredient as a ready-to-use (RTU) solution formulation which is pharmaceutically stable over prolonged periods of storage. […] Accordingly, it is an object of the present invention to overcome these difficulties by providing a stable solution formulation of N-[[1-[[2-(diethylamino)ethyl]amino]-7-methoxy-9-oxothioxanthen-4-yl]methyl]formamide, or a pharmaceutically acceptable acid-addition salt thereof, in ready-to-use form.

Data set [1] in a line: Stability under acidic conditions. The class given is physicochemical.
From the text: as §1

Here are results for one molecule from patent US20050176619A1, “Antitumoral formulations of thioxanthenone” (priority 2001, published 2005).

Converted amounts (≈) assume the structure as drawn.

What is called solubility is how much of the substance goes into solution per volume.

In the data set “Solubility in water”, `CCN(CC)CCNc1ccc(CNC=O)c2sc3ccc(OC)cc3c(=O)c12` [N-[[1-[[2-(diethylamino)ethyl]amino]-7-methoxy-9-oxothioxanthen-4-yl]methyl]formamide] gave a solubility of 100 µg/mL (≈ 242 µM). For the same molecule, in data set [1], the “stability under acidic conditions” value was “unstable under acidic conditions”.
